Here are results for 1 substance from US11672786B2, “Methods of treating diseases associated with repeat instability” (The Hospital for Sick Children, priority 2016, dated 2023).

This assay concerns HT1080-(CAG)850 contact inhibition. Description: small-pool PCR repeat instability, non-proliferating HT1080-(CAG)850 cells under contact inhibition. In kind it is cell-based, human. As to conditions: 50 uM NA, 30 days. The procedure:
The construction of the HT1080-(CAG)850 cell model was described previously (Sathasivam et al., 1997, Hum. Genet., 99:692-5). Briefly, HT1080 (ATCC) human fibrosarcoma cells were co-transfected with a plasmid (LC15-R) containing 800-850 (CTG)●(CAG) repeats (Nakatani et al., 2005, Nat. Chem. Biol., 1:39-43) and a plasmid encoding PhiC31 integrase. Transfection was performed with a Nucleofector (Lonza, Basel, Switzerland), and stably transfected clones were selected with puromycin. […] The HT1080-non-transcribing (CAG)850 cell model was established by transfecting a plasmid modified from pLC16 by inserting an additional SV40 polyadenylation signal downstream of the repeats (in addition to the original polyadenylation signals located upstream of the repeats), so that CAG/CTG repeats are floxed by transcription-terminator elements. The AttB-PhiC31 system has been widely used for single copy integration. […] The HT1080 model cells and an HD primary fibroblast cell line, GM09197 (Coriell Biorepository) with a large expanded allele of 180 CAG repeats and a non-expanded allele of 23 repeats (Sathasivam et al., 1997, Hum. Genet., 99:[…]), the HD primary fibroblast cell line, GM02191 (Coreill Biorepository) with an expanded allele of 43 CAG repeats and a non-expanded allele of 19 repeats, were cultured at 37° C. with 5% CO2 in Dulbecco's modified Eagle's medium supplemented with 10% fetal bovine serum and 1% penicillin/streptomycin. Cells were treated with or without continuous exposure to 50-μM NA for 30 days (HT1080 cells) or for 40 days (fibroblast cells). For experiments on non-proliferating cells, HT1080 cells were grown to confluence and then treated for the same period. WST-1 assay was performed according to the manufacturer's instructions (Roche, Basel, Switzerland). All cell lines were tested to be free of Mycoplasma. Three biological replicates were performed for each experiment.
Proliferation was inhibited by growth under contact inhibition and serum starvation, as previously performed. Degree of arrest from proliferation was assessed in living cells by counting BrdU positive cells after 24 hrs incubation with BrdU in proliferating or contact-inhibited (and serum starved) HT1080-(CAG)850 cells. The percentage of BrdU positive cells was 92.6% in proliferating cells and 8.17% in contact-inhibited cells. Although a small portion of HT1080-(CAG)850 cells were still proliferating even under contact-inhibition and serum starvation, the ratio is very small. Based on a calculation how many cells derive from a single cell after 30 days (the period that was studied) (proliferating, 1.926^30=348653546.6; contact inhibition, 1.0817^30=10.55), the effect of proliferation in contact-inhibited cells can be ignored.
Genomic DNA was extracted from HT1080-(CAG)850 clones and HD primary fibroblasts using the Gentra Puregene Cell Kit (Qiagen, Valencia, Calif.). The expanded (CTG)●(CAG) repeats were sized by small-pool PCR (sp-PCR) followed by Southern blot as described previously (Sathasivam et al., 1997, Hum. Genet., 99:692-5). For HT1080 models, small-pool PCR (spPCR) was performed with the input of 1.4-1.7 genome equivalents. The repeat size difference in the models is, at most, 3000 base-pairs, therefore, being strictly conservative, a bias toward amplifying the shorter allele can be possible, even under optimized PCR conditions described herein. For HD primary fibroblasts, sp-PCR & Southern blots were performed as described previously with slight modifications (Tome et al., 2013, PLoS Genet., 9:e1003280). Briefly, the PCR primers listed in Table 1 were used, and blots were hybridized with a DIG-labeled (CAG)7 locked nucleic acid probe (Nakamori et al. 2009, Neuromuscul. Disord., 19:759-62).

The mark [1] stands for this setting: single experiments Ex 1-3, cut-off ±25 repeats.

Values joined by “and” are separate entries in the source; they are usually repeats but may differ in a detail not shown here. Equal values may be shown once.

With naphthyridine-azaquinolone, where the note is “Total”, the “% Contraction” value is 53.3%, the “% Expansion” value was 16.6%, the “% Unchanged” value was 30.2% and the “Average Change of Repeat Size” value is listed as −90.9 number of repeats. Also, the “% Unchanged” value (single experiments Ex 1-3) was 34.9% and 25.0% and 30.0%. Moreover, under setting [1], the “% Contraction” value is 49.2% and 57.1% and 54.0%; the “% Expansion” value is 15.9% and 17.9% and 16.0%.
